The values below are quoted from earlier work in PubChem BioAssay AID1259409 (Chemical Carcinogenesis Research Information System (CCRIS), 2018).

The test system of the data set is rodent chemically induced tumor inhibition, incidence and multiplicity. Briefly: CCRIS tumor inhibitor studies. The conditions noted are these: Species: MOUSE.

Take `O=c1c(O)c(-c2ccc(O)c(O)c2)oc2cc(O)cc(O)c12`: the “tumour outcome (control, treated, inhibition, significance)” value by setting is: (Carcinogen: 7,12-DIMETHYLBENZ[A]ANTHRACENE, 57-97-6, Dose [Inhibitor]: 30 UMOL IN 100 µL ACETONE/DIMETHYL SULFOXIDE (4/1, V/V) 2/WK 40 MINUTES BEFORE AND CONCURRENTLY WITH EACH PROMOTER TREAT, Route [Inhibitor]: DERMAL, Strain/Sex: ICR/FEMALE, Target Tissue: Type of Lesion: SKIN: PAPILLOMA, Dose [Carcinogen]: 100 UG IN 100 µL ACETONE ONCE, Promoter: TELEOCIDIN, 78474-55-2) 80%, 30%, 63%, not calculated; (Carcinogen: 7,12-DIMETHYLBENZ[A]ANTHRACENE, 57-97-6, Dose [Inhibitor]: 100 UG IN 0.2 ML ACETONE ONCE 5 MIN BEFORE CARCINOGEN TREATMENT (STUDY DURATION: 31 WK), Route [Inhibitor]: DERMAL, Strain/Sex: CD-1/FEMALE, Target Tissue: Type of Lesion: SKIN: PAPILLOMA, Dose [Carcinogen]: 10 NMOL IN 0.2 ML ACETONE ONCE, Promoter: 12-O-TETRADECANOYLPHORBOL-13-ACETATE, 16561-29-8) 87%, 70%, 20%, not calculated; (Carcinogen: (+/-)-7BETA,8ALPHA-DIHYDROXY-9ALPHA,10ALPHA-EPOXY-7,8,9,10- TETRAHYDROBENZO[A]PYRENE, 58917-67-2, Dose [Inhibitor]: 3000 NMOL IN 0.2 ML ACETONE 1/D FOR 7 D (STUDY DURATION: 18 WK), Route [Inhibitor]: DERMAL, Strain/Sex: SENCAR/FEMALE, Target Tissue: Type of Lesion: SKIN: TUMOR, Dose [Carcinogen]: 200 NMOL IN 0.2 ML ACETONE ONCE 30 MIN POST LAST CARCINOGEN DOSE, Promoter: 12-O-TETRADECANOYLPHORBOL-13-ACETATE, 16561-29-8) 75%, 65%, 13%, not significant; (Carcinogen: (+/-)-7BETA,8ALPHA-DIHYDROXY-9ALPHA,10ALPHA-EPOXY-7,8,9,10-TETRAHYDROBENZO[A]PYR ENE, 58917-67-2, Dose [Inhibitor]: 0, 1400 NMOL (TOTAL DOSE) APPLIED 10 MIN PRIOR TO CARCINOGEN DOSE INJECTED AS 1/7, 2/7, AND 4/7 OF THE TOTAL ON DAYS 1,, Route [Inhibitor]: INTRAPERITONEAL, Strain/Sex: ICR/MALE,FEMALE, Target Tissue: Type of Lesion: LUNG: TUMOR, Dose [Carcinogen]: 30 NMOL (TOTAL DOSE) INJECTED IN DOSES OF 1/7, 2/7, AND 4/7 ON DAYS 1, 8, AND 15 OF LIFE, RESPECTIVELY, Promoter: NONE USED) 93%, 81%, 13%, not significant; (Carcinogen: (+/-)-7BETA,8ALPHA-DIHYDROXY-9ALPHA,10ALPHA-EPOXY-7,8,9,10-TETRAHYDROBENZO[A]PYR ENE, 58917-67-2, Dose [Inhibitor]: 0, 2500 NMOL IN 200 µL ACETONE:DMSO (90:10) ONCE APPLIED 5 MIN PRIOR TO CARCINOGEN DOSE (STUDY DURATION: 21 WK), Route [Inhibitor]: DERMAL, Strain/Sex: CD-1/FEMALE, Target Tissue: Type of Lesion: SKIN: TUMOR, Dose [Carcinogen]: 200 NMOL IN ACETONE:DMSO (90:10) ONCE, Promoter: 12-O-TETRADECANOYLPHORBOL-13-ACETATE, 16561-29-8) 59%, 69%, -17%, not significant; (Carcinogen: AZOXYMETHANE, 25843-45-2, Dose [Inhibitor]: 0, 0.1% IN DIET FOR DURATION OF STUDY (STUDY DURATION: 48 WK), Route [Inhibitor]: ORAL, Strain/Sex: CF-1/FEMALE, Target Tissue: Type of Lesion: COLON: TUMOR, Dose [Carcinogen]: 10 MG/KG BW 3 TIMES, Promoter: NONE USED) 8/32 (25%), 5/32 (16%), 36%, not significant. Moreover, the “tumour outcome (control, treated, inhibition, significance)” value is recorded as 8/32 (25%), 7/35 (20%), 20%, not significant (Carcinogen: AZOXYMETHANE, 25843-45-2, Dose [Inhibitor]: 0, 0.5% IN DIET FOR DURATION OF STUDY (STUDY DURATION: 48 WK), Route [Inhibitor]: ORAL, Strain/Sex: CF-1/FEMALE, Target Tissue: Type of Lesion: COLON: TUMOR, Dose [Carcinogen]: 10 MG/KG BW 3 TIMES, Promoter: NONE USED); 8/32 (25%), 2/34 (6%), 76%, p=0.003 (Carcinogen: AZOXYMETHANE, 25843-45-2, Dose [Inhibitor]: 0, 2% IN DIET FOR DURATION OF STUDY (STUDY DURATION: 48 WK), Route [Inhibitor]: ORAL, Strain/Sex: CF-1/FEMALE, Target Tissue: Type of Lesion: COLON: TUMOR, Dose [Carcinogen]: 10 MG/KG BW 3 TIMES, Promoter: NONE USED); 73%, 68%, 7%, not significant (Carcinogen: BENZO[A]PYRENE, 50-32-8, Dose [Inhibitor]: 0, 1400 NMOL (TOTAL DOSE) APPLIED 10 MIN PRIOR TO CARCINOGEN DOSE INJECTED AS 1/7, 2/7, AND 4/7 OF THE TOTAL ON DAYS 1,, Route [Inhibitor]: INTRAPERITONEAL, Strain/Sex: ICR/MALE,FEMALE, Target Tissue: Type of Lesion: LUNG: TUMOR, Dose [Carcinogen]: 450 NMOL (TOTAL DOSE) INJECTED IN DOSES OF 1/7, 2/7, AND 4/7 ON DAYS 1, 8, AND 15 OF LIFE, RESPECTIVELY, Promoter: NONE USED); 50%, 45%, 10%, not significant (Carcinogen: BENZO[A]PYRENE, 50-32-8, Dose [Inhibitor]: 0, 2500 NMOL IN 200 µL ACETONE:DMSO (90:10) ONCE APPLIED 5 MIN PRIOR TO CARCINOGEN DOSE (STUDY DURATION: 21 WK), Route [Inhibitor]: DERMAL, Strain/Sex: CD-1/FEMALE, Target Tissue: Type of Lesion: SKIN: TUMOR, Dose [Carcinogen]: 50 NMOL IN ACETONE:DMSO (90:10) ONCE, Promoter: 12-O-TETRADECANOYLPHORBOL-13-ACETATE, 16561-29-8); 50%, 55%, -10%, not significant (Carcinogen: BENZO[A]PYRENE, 50-32-8, Dose [Inhibitor]: 0, 12500 NMOL IN 200 µL ACETONE:DMSO (90:10) ONCE APPLIED 5 MIN PRIOR TO CARCINOGEN DOSE (STUDY DURATION: 21 WK), Route [Inhibitor]: DERMAL, Strain/Sex: CD-1/FEMALE, Target Tissue: Type of Lesion: SKIN: TUMOR, Dose [Carcinogen]: 50 NMOL IN ACETONE:DMSO (90:10) ONCE, Promoter: 12-O-TETRADECANOYLPHORBOL-13-ACETATE, 16561-29-8); 6/50 (12%), 0/50 (0%), 100%, not calculated (Carcinogen: BENZO[A]PYRENE, 50-32-8, Dose [Inhibitor]: 25 MG IN 0.1 ML DMSO 3/WK ADMINISTERED SIMULTANEOUSLY WITH CARCINOGEN FOR DURATION OF STUDY (STUDY DURATION: 368 D), Route [Inhibitor]: DERMAL, Strain/Sex: ICR/FEMALE, Target Tissue: Type of Lesion: SKIN: SQUAMOUS CARCINOMA, Dose [Carcinogen]: 5 UG IN 0.1 ML DMSO THAT ALSO CONTAINED AGENT 3/WK FOR DURATION OF STUDY, Promoter: NONE USED).
